Here are results for 18 molecules from patent US10752588B2 (The Broad Institute, Inc., priority 2014, dated 2020).

For assay [1], the target named is T1, human D2R/β-arrestin (Homo sapiens (Human), UniProt P14416). Nature of the assay: β-Arrestin agonist assay (PathHunter). The format is cell-based. The conditions noted are these: CHO-K1 cell line expressing human D2R/β-arrestin. The protocol: (§1) The assays can be performed using proper detection reagents either prepared using routine methods known in the art or commercially available (e.g., PathHunter® β-Arrestin Detecting Kit (DiscoveRX)). Cells are grown to the necessary confluence and then detached. The cells are then centrifuged, washed, resuspended, and seeded into a container (e.g., 384-well plate). The cells are incubated (e.g., at 37° C., 5% CO2) for the appropriate period of time (e.g., 24 hours), before various compounds (e.g., a compound of the invention or a control compound) are added to the cells. After incubation of the cells with the compounds, detection reagents (e.g., a buffer containing Emerald II: Galactor-Star as provided DiscoveRX) are added to the cells. The read-out (e.g., luminescence, or fluorescence) is detected using standard equipment.
The detection reagent (9.6 μL, Buffer:Emerald II:Galactor-Star in a 19:5:1 ratio, i.e., 14.06 mL:3.7 mL:0.74 mL=18.5 mL) was then added to the agonist plates.

In assay [2] the target is T1, human D2R/β-arrestin. Nature of the assay: Gi/cAMP agonist assay (Lance Ultra cAMP, Forskolin). Format: cell-based. The note with it: CHO-K1 cell line expressing human D2R/β-arrestin. As for the experimental part:
as §1, with “PE Lance Ultra cAMP kit (TRF0263)).” for “PathHunter® β-Arrestin Detecting Kit (DiscoveRX)).”, “Afterwards, cAMP inducing agents (e.g., Forskolin) are added to and incubated with” for “After incubation of”, “before” for “with the compounds,”, “cAMP antibody, such” for “buffer containing Emerald II: Galactor-Star”, “ULight-anti-cAMP solution)” for “provided DiscoveRX)”, “Read-out” for “The read-out”
Compounds were pin-transferred (100 nL) to the cells, and incubated for 10 min. at 37° C. […] Eu-cAMP tracer solution (100, PerkinElmer, […] in 17.64 ml kit buffer) and ULight-anti-cAMP solution (100, 120 μL antibody in 17.88 ml kit buffer) was then added to each well.

The target of assay [3] is T1, human D2R/β-arrestin. The experiment in a line: cell-based. The conditions noted are these: β-arrestin Antagonist.
In assay [4] the target is T1, human D2R/β-arrestin. Nature of the assay: cell-based. The note with it: cAMP Antagonist.
The mark [5] stands for this setting: CHO-K1 cell line expressing human D2R/β-arrestin, quinpirole used as agonist.

What is called EC50 is the concentration needed to bring the measured effect to its halfway point. A higher EC50 goes with weaker potency. One may read the IC50 as the concentration that gives 50% inhibition. Read a high IC50 as weaker potency.

The structures appear in SMILES notation. Where only a bound is given, the exact number is not on record here.

T1 sequence (P14416 whole entry): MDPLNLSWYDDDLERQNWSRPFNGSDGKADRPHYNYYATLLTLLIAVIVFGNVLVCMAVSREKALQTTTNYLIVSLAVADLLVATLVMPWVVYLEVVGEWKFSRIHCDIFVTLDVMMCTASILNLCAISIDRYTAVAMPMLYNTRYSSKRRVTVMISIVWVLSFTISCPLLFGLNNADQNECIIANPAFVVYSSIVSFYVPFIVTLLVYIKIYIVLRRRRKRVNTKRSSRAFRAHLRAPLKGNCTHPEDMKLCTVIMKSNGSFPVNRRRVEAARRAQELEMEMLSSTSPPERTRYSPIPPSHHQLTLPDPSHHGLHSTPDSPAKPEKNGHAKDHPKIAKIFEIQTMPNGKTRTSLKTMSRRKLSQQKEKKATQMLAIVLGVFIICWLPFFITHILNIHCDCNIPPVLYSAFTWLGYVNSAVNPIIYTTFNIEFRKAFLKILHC

Take `CC(C1CCN(CCOc2ccccc2)CC1)N(C)C(c1ccc(Cl)cc1)c1ccccn1` (single isomer, unassigned) [Compound 97c, N-((4-chlorophenyl)(pyridin-2-yl)methyl)-N-methyl-1-(1-(2-phenoxyethyl)piperidin-4-yl)ethan-1-amine]: the EC50 at human D2R/β-arrestin [1] and at human D2R/β-arrestin [2] was more than 30000 nM in each case. The 50% inhibitory concentration (IC50) on human D2R/β-arrestin [3] (setting [5]) and at human D2R/β-arrestin [4] (setting [5]) was less than 100 nM each time.

`CC(C1CCN(CCOc2ccccc2)CC1)N(C)C(c1ccc(Cl)cc1)c1ccccn1` (single isomer, unassigned) [Compound 97d, N-((4-chlorophenyl)(pyridin-2-yl)methyl)-N-methyl-1-(1-(2-phenoxyethyl)piperidin-4-yl)ethan-1-amine]: the EC50 on human D2R/β-arrestin [1] and on human D2R/β-arrestin [2] was more than 30000 nM each time. Also, the IC50 on human D2R/β-arrestin [3] (setting [5]) and on human D2R/β-arrestin [4] (setting [5]) was 100 to 1000 nM throughout.

As to `CC1(CNC(c2ccc(F)cc2)c2ccccn2)CCN(CCOc2ccccc2C(F)(F)F)CC1` (single isomer, unassigned) [Compound 101a, 1-(4-fluorophenyl)-N-((4-methyl-1-(2-(2-(trifluoromethyl)phenoxy)ethyl)piperidin-4-yl)methyl)-1-(pyridin-2-yl)methanamine], the EC50 on human D2R/β-arrestin [1] and at human D2R/β-arrestin [2] was more than 30000 nM throughout. Besides, the IC50 on human D2R/β-arrestin [3] (setting [5]) and at human D2R/β-arrestin [4] (setting [5]) was 100 to 1000 nM in each case.

On to `c1ccc(OCCN2CCC(CNC(c3ccc4c(c3)OCO4)c3ccccn3)CC2)cc1` (single isomer, unassigned) [Compound 102a, 1-(benzo[d][1,3]dioxol-5-yl)-N-((1-(2-phenoxyethyl)piperidin-4-yl)methyl)-1-(pyridin-2-yl)methanamine], for which the EC50 at human D2R/β-arrestin [1] and at human D2R/β-arrestin [2] was more than 30000 nM in each case. Also, the IC50 on human D2R/β-arrestin [3] (setting [5]) and on human D2R/β-arrestin [4] (setting [5]) was 1000 to 10000 nM in each case.

Consider `CC(C)N(CC1CCN(CCOc2ccccc2)CC1)C(c1ccc(Cl)cc1)c1ccccn1` (single isomer, unassigned) [Compound 103a, N-((4-chlorophenyl)(pyridin-2-yl)methyl)-N-((1-(2-phenoxyethyl)piperidin-4-yl)methyl)propan-2-amine], for which the figures for the EC50 at human D2R/β-arrestin [1] and on human D2R/β-arrestin [2] were more than 30000 nM and 100 to 1000 nM, respectively. The IC50 against human D2R/β-arrestin [3] was 100 to 1000 nM; at human D2R/β-arrestin [4], less than 100 nM.

Turning to `Clc1ccc(C(NCC2CCN(CCOc3ccccc3)CC2)c2ccccn2)cc1` (single isomer, unassigned) [Compound 114b, 1-(4-chlorophenyl)-N-((1-(2-phenoxyethyl)piperidin-4-yl)methyl)-1-(pyridin-2-yl)methanamine], the EC50 is more than 30000 nM at human D2R/β-arrestin [1] and 100 to 1000 nM at human D2R/β-arrestin [2]. Moreover, the half-maximal inhibitory concentration (IC50) on human D2R/β-arrestin [3] (setting [5]) is 100 to 1000 nM; on human D2R/β-arrestin [4] (setting [5]), more than 30000 nM.

Take `O=C(NC(c1ccc(Cl)cc1)c1ccccn1)C1CCN(CCOc2ccc(F)cc2F)CC1` (single isomer, unassigned) [Compound 115a, N-((4-chlorophenyl)(pyridin-2-yl)methyl)-1-(2-(2,4-difluorophenoxy)ethyl)piperidine-4-carboxamide]: the EC50 is more than 30000 nM at human D2R/β-arrestin [1] and 100 to 1000 nM on human D2R/β-arrestin [2]. Further, the figures for the IC50 on human D2R/β-arrestin [3] (setting [5]) and at human D2R/β-arrestin [4] (setting [5]) were 1000 to 10000 nM and more than 30000 nM, respectively.

With `O=C(NC(c1ccc(Cl)cc1)c1ccccn1)C1CCN(CCOc2ccc(F)cc2F)CC1` (single isomer, unassigned) [Compound 115b, N-((4-chlorophenyl)(pyridin-2-yl)methyl)-1-(2-(2,4-difluorophenoxy)ethyl)piperidine-4-carboxamide], the EC50 at human D2R/β-arrestin [1] and at human D2R/β-arrestin [2] was more than 30000 nM throughout. Further, the IC50 at human D2R/β-arrestin [3] (setting [5]) and at human D2R/β-arrestin [4] (setting [5]) was 100 to 1000 nM throughout.

Turning to `FC(F)(F)CN(CC1CCN(CCOc2ccccc2)CC1)C(c1ccc(Cl)cc1)c1ccccn1` (single isomer, unassigned) [Compound 125a, N-((4-chlorophenyl)(pyridin-2-yl)methyl)-2,2,2-trifluoro-N-((1-(2-phenoxyethyl)piperidin-4-yl)methyl)ethanamine], the EC50 on human D2R/β-arrestin [1] is more than 30000 nM; on human D2R/β-arrestin [2], 100 to 1000 nM. In addition, the IC50 at human D2R/β-arrestin [3] (setting [5]) was 1000 to 10000 nM; at human D2R/β-arrestin [4] (setting [5]), more than 30000 nM.

For the molecule `FC(F)(F)CN(CC1CCN(CCOc2ccccc2)CC1)C(c1ccc(Cl)cc1)c1ccccn1` (single isomer, unassigned) [Compound 125b, N-((4-chlorophenyl)(pyridin-2-yl)methyl)-2,2,2-trifluoro-N-((1-(2-phenoxyethyl)piperidin-4-yl)methyl)ethanamine], the EC50 at human D2R/β-arrestin [1] and at human D2R/β-arrestin [2] was more than 30000 nM throughout. In addition, the IC50 was in the range of 100 to 1000 nM on human D2R/β-arrestin [3] (setting [5]) and 1000 to 10000 nM on human D2R/β-arrestin [4] (setting [5]).

With `O=C(NC(c1ccc2c(c1)OC(F)(F)O2)c1ccccn1)C1CCN(CCOc2ccc(F)cc2F)CC1` (single isomer, unassigned) [Compound 130a, N-((2,2-difluorobenzo[d][1,3]dioxol-5-yl)(pyridin-2-yl)methyl)-1-(2-(2,4-difluorophenoxy)ethyl)piperidine-4-carboxamide], the EC50 at human D2R/β-arrestin [1] and at human D2R/β-arrestin [2] was more than 30000 nM each time. Moreover, the IC50 on human D2R/β-arrestin [3] (setting [5]) lay within 1000 to 10000 nM; at human D2R/β-arrestin [4] (setting [5]), 100 to 1000 nM.

Turning to `CC(C)N(CC1CCN(CCOc2ccccc2F)CC1)C(c1ccc(Cl)cc1)c1ccccn1` (single isomer, unassigned) [Compound 133a, N-((4-chlorophenyl)(pyridin-2-yl)methyl)-N-((1-(2-(2-fluorophenoxy)ethyl)piperidin-4-yl)methyl)propan-2-amine], the EC50 at human D2R/β-arrestin [1] and at human D2R/β-arrestin [2] was more than 30000 nM in each case. Moreover, the IC50 on human D2R/β-arrestin [3] (setting [5]) and on human D2R/β-arrestin [4] (setting [5]) was less than 100 nM each time.

`CC(C)N(CC1CCN(CCOc2ccccc2F)CC1)C(c1ccc(Cl)cc1)c1ccccn1` (single isomer, unassigned) [Compound 133b, N-((4-chlorophenyl)(pyridin-2-yl)methyl)-N-((1-(2-(2-fluorophenoxy)ethyl)piperidin-4-yl)methyl)propan-2-amine]: the EC50 on human D2R/β-arrestin [1] and at human D2R/β-arrestin [2] was less than 100 nM throughout. Also, the IC50 at human D2R/β-arrestin [3] (setting [5]) is 100 to 1000 nM; at human D2R/β-arrestin [4] (setting [5]), more than 30000 nM.

As to `Fc1ccccc1OCCN1CCC(CN(CC(F)(F)F)C(c2ccc(Cl)cc2)c2ccccn2)CC1` (single isomer, unassigned) [Compound 136a, N-((4-chlorophenyl)(pyridin-2-yl)methyl)-2,2,2-trifluoro-N-((1-(2-(2-fluorophenoxy)ethyl)piperidin-4-yl)methyl)ethan-1-amine], the figures for the EC50 on human D2R/β-arrestin [1] and at human D2R/β-arrestin [2] were 100 to 1000 nM and 1000 to 10000 nM, respectively. The IC50 on human D2R/β-arrestin [3] (setting [5]) was 100 to 1000 nM; on human D2R/β-arrestin [4] (setting [5]), more than 30000 nM.

Consider `Fc1ccccc1OCCN1CCC(CN(CC(F)(F)F)C(c2ccc(Cl)cc2)c2ccccn2)CC1` (single isomer, unassigned) [Compound 136b, N-((4-chlorophenyl)(pyridin-2-yl)methyl)-2,2,2-trifluoro-N-((1-(2-(2-fluorophenoxy)ethyl)piperidin-4-yl)methyl)ethan-1-amine], for which the concentration giving a half-maximal response (EC50) on human D2R/β-arrestin [1] and on human D2R/β-arrestin [2] was more than 30000 nM throughout. For the same molecule, the IC50 at human D2R/β-arrestin [3] (setting [5]) and on human D2R/β-arrestin [4] (setting [5]) was less than 100 nM each time.

For the molecule `CN(CC1CCN(CCOc2ccccc2F)CC1)C(c1ccc2c(c1)OCO2)c1ccccn1` (single isomer, unassigned) [Compound 138a, 1-(benzo[d][1,3]dioxol-5-yl)-N-((1-(2-(2-fluorophenoxy)ethyl)piperidin-4-yl)methyl)-N-methyl-1-(pyridin-2-yl)methanamine], the EC50 at human D2R/β-arrestin [1] was 100 to 1000 nM; on human D2R/β-arrestin [2], less than 100 nM. The IC50 at human D2R/β-arrestin [3] (setting [5]) is 100 to 1000 nM; at human D2R/β-arrestin [4] (setting [5]) it was more than 30000 nM.

As to `Fc1ccccc1OCCN1CCC(CNC(c2ccc3c(c2)OCO3)c2ccccn2)CC1` (single isomer, unassigned) [Compound 139a, 1-(benzo[d][1,3]dioxol-5-yl)-N-((1-(2-(2-fluorophenoxy)ethyl)piperidin-4-yl)methyl)-1-(pyridin-2-yl)methanamine], the figures for the EC50 at human D2R/β-arrestin [1] and on human D2R/β-arrestin [2] were more than 30000 nM and less than 100 nM, respectively. For the same molecule, the IC50 at human D2R/β-arrestin [3] (setting [5]) and on human D2R/β-arrestin [4] (setting [5]) was 100 to 1000 nM in each case.

In the case of `COc1cccc(C(NC(=O)C2CCN(CCOc3ccc(F)cc3F)CC2)c2ccccn2)c1` (single isomer, unassigned) [Compound 145a, 1-(2-(2,4-difluorophenoxy)ethyl)-N-((3-methoxyphenyl)(pyridin-2-yl)methyl)piperidine-4-carboxamide], the EC50 on human D2R/β-arrestin [1] and on human D2R/β-arrestin [2] was more than 30000 nM throughout. For the same molecule, the IC50 was 10000 to 30000 nM at human D2R/β-arrestin [3] (setting [5]) and 1000 to 10000 nM on human D2R/β-arrestin [4] (setting [5]).
